Assay [1] relates to HBV. The assay is described as follows: Extracellular HBV DNA and pgRNA in HepAD38 cells (qPCR, RT-qPCR). Type of assay: cell-based, Hepatitis B virus. As to conditions: HepAD38; concn ETV 0.01, ABI-H0731 2.0, GLS4 0.5, NVR 3-778 2.5, AT-130 0.8, VRD-32 0.8 μM. The source says:
For HBV RNA Northern blot analysis, total cellular RNA or encapsidated pgRNA samples were resolved in a 1.5% agarose gel containing 2.2 M formaldehyde and transferred onto a Hybond-XL membrane (GE Healthcare). For DNA Southern blot analysis, HBV core DNA or cccDNA samples were resolved by electrophoresis in a 1.2% agarose gel and blotted onto a Hybond-XL membrane. Membranes were probed with either an [α-^32P]UTP (3,000 Ci/mmol; PerkinElmer)-labeled plus-strand-specific (for Northern blot hybridization) or minus-strand-specific (for Southern blot hybridization) HBV riboprobe and exposed to a phosphorimager screen. Extracellular HBV DNA and RNA were copurified from the culture medium of induced HepAD38 cells by using a MinElute virus vacuum kit (Qiagen). Viral DNA was quantified using the above-mentioned qPCR method directly, and HBV RNA was detected by RT-qPCR with the same core region primer/probe set after the removal of DNA contamination by DNase I (Thermo Fisher) treatment.
(Real-time PCR tracks product formation cycle by cycle.)

The subject of assay [2] is HBV. The assay is described as follows: HBV RNA/DNA analyses in induced HepAD38 cells (Northern/Southern blot). Type of assay: cell-based, Hepatitis B virus. As to conditions: HepAD38, 10-fold over VR EC50.
Assay [3] concerns HBV (genotype D, subtype ayw). The assay is described as follows: HBV replication assay in HepAD38 cells. Type of assay: cell-based, Hepatitis B virus. As to conditions: Hepatitis B virus, HePAD38, HepAD38; total intracellular viral DNA; read-out: Mean EC50, viral DNA.
Assay [4] concerns HBV. The assay is described as follows: HBV infection of primary human hepatocytes (PHHs). Type of assay: cell-based. The note with it: Hepatitis B virus, Hepatocyte, PHH.
Another assay concerns HBV Cp Y38F. The assay is described as follows: microbe, parasite or virus in culture. The class given is cell-based, Hepatitis B virus. The note with it: for EC50: Hepatitis B virus, Huh-7, read-out: Mean EC50; for Fold shift: Y38F vs wild type.
The subject of the next assay is HBV Cp Y118F. The assay is described as follows: microbe, parasite or virus in culture. The class given is cell-based, Hepatitis B virus. The note with it: for EC50: Hepatitis B virus, Huh-7, read-out: Mean EC50; for Fold shift: Y118F vs wild type.
The test system of another assay is HBV Cp Y38C. The assay is described as follows: microbe, parasite or virus in culture. The class given is cell-based, Hepatitis B virus. As to conditions: for EC50: Hepatitis B virus, Huh-7, read-out: Mean EC50; for Fold shift: Y38C vs wild type.
A further assay deals with HBV Cp T33N. The assay is described as follows: microbe, parasite or virus in culture. Type of assay: cell-based, Hepatitis B virus. As to conditions: for EC50: Hepatitis B virus, Huh-7, read-out: Mean EC50; for Fold shift: T33N vs wild type.
In assay [5] the test system is HBV. The assay is described as follows: HBV infection of HepG2-NTCP cells. Type of assay: cell-based. The note with it: Hepatitis B virus.
For the next assay, the system named is HBV Cp D29G. The assay is described as follows: microbe, parasite or virus in culture. Type of assay: cell-based, Hepatitis B virus. The note with it: for EC50: Hepatitis B virus, Huh-7, read-out: Mean EC50; for Fold shift: D29G vs wild type.
A further assay deals with HBV Cp T109I. The assay is described as follows: microbe, parasite or virus in culture. Type of assay: cell-based, Hepatitis B virus. The note with it: for EC50: Hepatitis B virus, Huh-7, read-out: Mean EC50; for Fold shift: T109I vs wild type.
A further assay has as its system HBV Cp I105L. The assay is described as follows: microbe, parasite or virus in culture. The class given is cell-based, Hepatitis B virus. The note with it: for EC50: Hepatitis B virus, Huh-7, read-out: Mean EC50; for Fold shift: I105L vs wild type.
A further assay concerns HBV Cp P25A. The assay is described as follows: microbe, parasite or virus in culture. The class given is cell-based, Hepatitis B virus. The note with it: for EC50: Hepatitis B virus, Huh-7, read-out: Mean EC50; for Fold shift: P25A vs wild type.
Another assay concerns HBV Cp I105T. The assay is described as follows: microbe, parasite or virus in culture. As to conditions: for EC50: Hepatitis B virus, Huh-7, read-out: Mean EC50; for Fold shift: I105T vs wild type. Type of assay: cell-based, Hepatitis B virus.
The subject of the next assay is HBV Cp Wild type. The assay is described as follows: microbe, parasite or virus in culture. Type of assay: cell-based, Hepatitis B virus. The note with it: for EC50: Hepatitis B virus, Huh-7, read-out: Mean EC50; for Fold shift: Wild type.
In a further assay the test system is HBV Cp T109M. The assay is described as follows: microbe, parasite or virus in culture. The class given is cell-based, Hepatitis B virus. The note with it: for EC50: Hepatitis B virus, Huh-7, read-out: Mean EC50; for Fold shift: T109M vs wild type.
Setting [6] is: total intracellular viral DNA, read-out: Mean EC50, viral DNA.

`COc1ccccc1/C(Br)=C(/NC(=O)c1ccc([N+](=O)[O-])cc1)C(=O)N1CCCCC1` [AT-130]: in the assay with HBV [1], the “Extracellular DNA content (% of DMSO control)” value is listed as 5.3 % of DMSO control and the “Extracellular pgRNA content (% of DMSO control)” value was 8.6 % of DMSO control.
For orientation: EC50 means the midpoint of the concentration-response curve. As for `CCOC(=O)C1=C(CN2CCOCC2)NC(c2nccs2)=NC1c1ccc(F)cc1Br` (centres unmarked) [GLS4], the “Levels of encapsidated pgRNA by Northern blotting” value (from here on “Levels of encapsidated pgRNA”) in the assay with HBV [2] is given as “virtually undetectable”. The “rcDNA detection by Southern blot” value in the assay on HBV [2] is “could not be detected”. For the same compound, the EC50 in [3] came to 29 ± 9 nM; in the assay with HBV [4] (read-out: EC50, HBeAg), 1480 nM; in the assay with HBV [4] (read-out: EC50, HBsAg) it was 1860 nM; in the assay on HBV [4] (read-out: EC50, pgRNA), 1930 nM; in the assay on HBV [4] (setting [6]) it was 1940 nM; in the assay on HBV Cp Y38F, 65 ± 17 nM. Besides, the EC50 was found to be 84.7 ± 2.3 nM with HBV Cp Y118F; 17 ± 9.5 nM in the assay on HBV Cp Y38C; 6340 nM with HBV Cp T33N; 550 nM with HBV [5] (read-out: EC50, HBeAg production); 670 nM with HBV [5] (read-out: EC50, HBsAg production); 280 nM with HBV [5] (read-out: EC50, pgRNA production). Moreover, the EC50 in the assay on HBV [5] (read-out: Mean EC50, HBeAg) worked out at 549 ± 48 nM; in the assay with HBV [5] (read-out: Mean EC50, HBsAg), 673 ± 41 nM; with HBV [5] (read-out: Mean EC50, pgRNA), 279 ± 43 nM; in the assay on HBV [5] (setting [6]), 58 ± 6 nM; in the assay on HBV Cp D29G it was 16.1 ± 0.4 nM; in the assay on HBV Cp T109I it was 237 ± 16.6 nM. Moreover, the EC50 worked out at 12 ± 6.5 nM in the assay with HBV Cp I105L; 451 ± 3.3 nM with HBV Cp P25A; 17 ± 2.7 nM with HBV Cp I105T; 17.9 ± 0.4 nM in the assay on HBV Cp Wild type; 15 ± 5.6 nM in the assay on HBV Cp T109M. Besides, the “Extracellular DNA content (% of DMSO control)” value in the assay with HBV [1] was 0.1 % of DMSO control. Besides, in the assay with HBV [1], the “Extracellular pgRNA content (% of DMSO control)” value is 0.1 % of DMSO control.
On to `O=C(Nc1cc(F)c(F)c(F)c1)c1ccc(F)c(S(=O)(=O)N2CCC(O)CC2)c1` [NVR 3-778], for which the “Levels of encapsidated pgRNA” value in the assay with HBV [2] is “virtually undetectable”. Also, the EC50 in [3] came to 238 ± 33 nM; in the assay on HBV [4] (read-out: Mean EC50, HBeAg) it was 4010 nM; in the assay with HBV [4] (read-out: Mean EC50, HBsAg), 5040 nM; in the assay with HBV [4] (read-out: Mean EC50, pgRNA) it was 4200 nM; with HBV [4] (setting [6]), 1680 nM; in the assay with HBV Cp Y38F, 208 ± 49 nM. In addition, the EC50 in the assay with HBV Cp Y118F was 887 ± 478 nM; in the assay with HBV Cp Y38C, 150 ± 48 nM; in the assay on HBV Cp T33N, above 10000 nM; with HBV [5] (read-out: Mean EC50, HBeAg) it was 8360 nM; with HBV [5] (read-out: Mean EC50, HBsAg) it was 9260 nM; in the assay on HBV [5] (read-out: Mean EC50, pgRNA) it was 7600 nM. For the same compound, the EC50 was 590 ± 71 nM in the assay with HBV [5] (setting [6]); 210 ± 52 nM with HBV Cp D29G; 77.4 ± 0.4 nM in the assay with HBV Cp T109I; 127 ± 73 nM in the assay with HBV Cp I105L; 719 ± 58 nM with HBV Cp P25A; 726 ± 98 nM in the assay on HBV Cp I105T. The concentration for a half-maximal effect (EC50) in the assay with HBV Cp Wild type stood at 178 ± 42 nM; in the assay on HBV Cp T109M it was 161 ± 97 nM. For the same compound, the “Extracellular DNA content (% of DMSO control)” value in the assay with HBV [1] is reported as 1.0 % of DMSO control. In addition, in the assay on HBV [1], the “Extracellular pgRNA content (% of DMSO control)” value is on record as 2.0 % of DMSO control. In addition, the Fold shift in the assay with HBV Cp Y38F is on record as 1.2 fold; with HBV Cp Y118F it was 5 fold; in the assay with HBV Cp Y38C it was 0.8 fold; in the assay on HBV Cp T33N it was above 56 fold; in the assay with HBV Cp D29G, 1.2 fold; in the assay with HBV Cp T109I, 0.4 fold. Besides, the Fold shift in the assay on HBV Cp I105L is on record as 0.7 fold; with HBV Cp P25A, 4 fold; in the assay with HBV Cp I105T, 4.1 fold; with HBV Cp Wild type, 1 fold; in the assay with HBV Cp T109M it was 0.9 fold.
On to `O=C1CO[C@H](c2cn(-c3ccc(F)cc3)nc2-c2ccc(F)cc2)N1CCc1ccc(O)cc1` [VRD-32], for which, in the assay with HBV [2], the “Levels of encapsidated pgRNA” value was “virtually undetectable”. The “rcDNA detection by Southern blot” value in the assay on HBV [2] was “could not be detected”. Moreover, the “Extracellular DNA content (% of DMSO control)” value in the assay on HBV [1] was 0.3 % of DMSO control. Further, the “Extracellular pgRNA content (% of DMSO control)” value with HBV [1] is reported as 0.9 % of DMSO control. Also, the EC50 with HBV Cp Y38F amounted to 20 ± 10 nM; in the assay on HBV Cp Y118F it was 805 ± 423 nM; in the assay on HBV Cp Y38C, 20 ± 1.4 nM; in the assay on HBV Cp T33N it was 1290 nM; in the assay with HBV Cp D29G it was 13.8 ± 1 nM; with HBV Cp T109I, 15.8 ± 1.9 nM. In addition, the EC50 in the assay with HBV Cp I105L is 40 ± 19 nM; in the assay with HBV Cp P25A it was 15.9 ± 0.04 nM; in the assay with HBV Cp I105T, 103 ± 87 nM; with HBV Cp Wild type, 16.1 ± 7.8 nM; in the assay on HBV Cp T109M, 25 ± 23 nM. Besides, the Fold shift amounted to 1.3 fold with HBV Cp Y38F; 50 fold with HBV Cp Y118F; 1.2 fold in the assay with HBV Cp Y38C; 80 fold in the assay with HBV Cp T33N; 0.9 fold in the assay with HBV Cp D29G; 1 fold with HBV Cp T109I. The Fold shift is given as 2.5 fold in the assay on HBV Cp I105L; 1 fold in the assay with HBV Cp P25A; 6.4 fold in the assay on HBV Cp I105T; 1 fold in the assay with HBV Cp Wild type; 1.6 fold with HBV Cp T109M.

The values above are taken from paper PMC7577125 (Antimicrobial Agents and Chemotherapy, 2020).
